Values belong to the compound of their own block, whether it stands above or below them.
Columns and labels:
Human HDAC1 = target: T1, Human HDAC1 (Homo sapiens, UniProt Q13547); experiment: HDAC biochemical assay, acetylated AMC-labeled peptide substrate; settings: read-out: IC50 (nM) HDAC 1
T1 construct: full length with C-terminal His-tag and C-terminal FLAG-tag; His-tag (C); FLAG-tag (C); made in house

Recombinant human HDAC6 = target: T2, Recombinant human HDAC6 (Homo sapiens, UniProt Q9UBN7); experiment: as above; settings: read-out: IC50 (nM) HDAC 6
T2 construct: full length, MW=159 kDa; GST (N); made in house; host or cells: Sf9 insect cells (baculovirus)
T2 sequence (Q9UBN7 1-1215): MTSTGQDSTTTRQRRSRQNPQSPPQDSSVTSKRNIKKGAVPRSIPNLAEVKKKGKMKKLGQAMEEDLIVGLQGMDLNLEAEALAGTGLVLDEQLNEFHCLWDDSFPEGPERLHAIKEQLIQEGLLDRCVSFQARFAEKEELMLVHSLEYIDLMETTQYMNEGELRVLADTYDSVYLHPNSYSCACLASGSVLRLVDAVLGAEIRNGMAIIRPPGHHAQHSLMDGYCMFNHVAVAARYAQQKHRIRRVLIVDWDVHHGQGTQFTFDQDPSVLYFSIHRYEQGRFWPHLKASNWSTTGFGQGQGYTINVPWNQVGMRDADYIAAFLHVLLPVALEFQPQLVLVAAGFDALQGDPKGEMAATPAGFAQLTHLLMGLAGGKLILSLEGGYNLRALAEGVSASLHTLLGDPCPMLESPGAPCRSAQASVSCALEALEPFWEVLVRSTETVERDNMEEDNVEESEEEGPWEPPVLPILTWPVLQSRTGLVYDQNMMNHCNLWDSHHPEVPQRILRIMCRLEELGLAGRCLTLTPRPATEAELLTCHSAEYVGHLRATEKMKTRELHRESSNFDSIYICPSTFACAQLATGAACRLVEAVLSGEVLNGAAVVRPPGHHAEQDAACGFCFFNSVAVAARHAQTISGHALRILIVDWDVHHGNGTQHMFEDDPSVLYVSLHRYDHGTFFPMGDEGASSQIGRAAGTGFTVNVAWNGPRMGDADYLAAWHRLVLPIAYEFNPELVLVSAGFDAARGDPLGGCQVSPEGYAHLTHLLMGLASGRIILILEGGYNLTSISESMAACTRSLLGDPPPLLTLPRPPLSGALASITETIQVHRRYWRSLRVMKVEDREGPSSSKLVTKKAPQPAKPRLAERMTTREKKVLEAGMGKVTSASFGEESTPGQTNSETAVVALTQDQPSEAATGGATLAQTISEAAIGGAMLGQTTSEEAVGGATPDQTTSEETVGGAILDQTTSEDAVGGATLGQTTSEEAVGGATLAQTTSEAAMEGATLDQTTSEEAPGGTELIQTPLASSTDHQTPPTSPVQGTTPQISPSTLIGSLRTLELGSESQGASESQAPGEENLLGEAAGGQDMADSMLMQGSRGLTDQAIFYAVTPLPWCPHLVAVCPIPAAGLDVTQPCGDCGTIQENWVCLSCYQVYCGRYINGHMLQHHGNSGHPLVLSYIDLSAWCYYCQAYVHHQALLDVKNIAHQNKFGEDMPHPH

[1] = system: PD-L1-expressing HT29 colorectal adenocarcinoma cells, primary stromal fibroblasts and PBMCs; experiment: Tumour microenvironment (TME) model system, study KRS018-01-b (DiscoverX); format: cell-based; settings: 2.5 to 10 μM; SAg stimulation 48 h; dose-dependent
Experimental: Test compounds dissolved in DMSO were profiled in a commercially-available tumour microenvironment (TME) model system consisting of PD-L1-expressing HT29 colorectal adenocarcinoma cells, primary stromal fibroblasts and PBMCs in which immune cel responses are suppressed by the presence of the cancer cells. Co-cultured cells were exposed to 2.5, 5, 10, 20 μM of test compound or DMSO as a control and stimulated with SAg for 48 h. The activity profile in the co-culture system was determined using ELISA endpoint assays to detect modulation of protein markers relevant to immune tolerance, inflammation, angiogenesis and matrix remodelling, and sulforhodamine B (SRB) and alamar blue assays to measure the viability of adherent colorectal adenocarcinoma cells and fibroblasts, and PBMCs, respectively.

RPMI8226 tumours = experiment: Tumour growth delay study in male SCID mice bearing RPMI8226 tumours; format: in vivo
acetylated tubulin = experiment: Western blot analysis of tumour tissue; format: in vivo, male SCID mice; settings: tumour tissue removed from treated animals
[2] = Clinical signs and weight in the tumour growth delay study
[3] = Group 2: Bortezomib 0.5 mg/kg i.v. twice weekly

T1 sequence (Q13547 whole entry): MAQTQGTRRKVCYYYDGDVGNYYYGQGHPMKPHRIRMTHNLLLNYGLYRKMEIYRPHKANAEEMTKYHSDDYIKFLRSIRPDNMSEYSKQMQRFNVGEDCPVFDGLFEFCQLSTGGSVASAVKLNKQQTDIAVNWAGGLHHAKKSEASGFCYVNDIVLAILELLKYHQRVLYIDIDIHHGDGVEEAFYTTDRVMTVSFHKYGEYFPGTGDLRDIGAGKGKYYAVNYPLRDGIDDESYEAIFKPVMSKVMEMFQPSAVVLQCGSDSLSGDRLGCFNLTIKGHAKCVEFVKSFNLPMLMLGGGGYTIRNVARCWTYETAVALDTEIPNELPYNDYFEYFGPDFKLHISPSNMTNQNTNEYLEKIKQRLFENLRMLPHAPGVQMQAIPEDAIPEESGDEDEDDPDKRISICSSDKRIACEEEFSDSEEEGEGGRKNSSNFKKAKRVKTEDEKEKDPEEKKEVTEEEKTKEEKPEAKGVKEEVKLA

IC50 (Human HDAC1): 1000 to 10000 nM
IC50 (Recombinant human HDAC6): ≤ 500 nM
SMILES: O=C(NO)c1ccc(CN(c2cnccn2)c2cc(-c3ccncc3)ccn2)cc1 [Example UU, 4-[({[4,4′-bipyridine]-2-yl}(pyrazin-2-yl)amino)methyl]-N-hydroxybenzamide]

weight change during the study ([2]; bortezomib combinations): no significant weight change
SMILES: O=C(NO)c1ccc(CN(c2cnccn2)c2cnccn2)cc1 [Example GG, 4-{[Bis(pyrazin-2-yl)amino]methyl}-N-hydroxybenzamide]
levels of secreted granzyme-B, IFNγ, IL-10, IL-17A, IL-2, IL-6 and TNFα [1]: increased
control of tumour (RPMI8226 tumours; Group 4 and 5 (with bortezomib), after 8 days of treatment): significant control of tumour
expression of acetylated tubulin in tumour tissue (acetylated tubulin): increased expression

IC50 (Human HDAC1): 1000 to 10000 nM
IC50 (Recombinant human HDAC6): ≤ 500 nM
SMILES: CNc1cc(-c2ccnc(N(Cc3ccc(C(=O)NO)cc3)c3cnccn3)c2)ccn1 [Example TT, N-hydroxy-4-({[2′-(methylamino)-[4,4′-bipyridine]-2-yl](pyrazin-2-yl)amino}methyl)benzamide]

Group mean at day 26 (weight, clinical signs) [2, 3]: 98.5
SMILES: CC(C)C[C@H](NC(=O)[C@H](Cc1ccccc1)NC(=O)c1cnccn1)B(O)O [Bortezomib]
% T/C value versus vehicle (RPMI8226 tumours; [3]): 67.8%
Mean tumour volume, Group mean at day 19 (RPMI8226 tumours; [3]): 984 mm³

— patent US20200316062A1, “COMBINATIONS COMPRISING HISTONE DEACETYLASE INHIBITORS” (Karus Therapeutics Limited, priority 2016, published 2020)
